Source: PubChem BioAssay AID720646 (Broad Institute, 2013)
Calls of active or inactive are those of the source.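 How the source made its calls: active means fitted rise in melting shift crosses a set limit at or below the top valid dose tested; inconclusive means flat fit at mid-level activity, or a poor quality fit; inactive means the rest.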

Molecular target: Fibroblast growth factor 22 (Homo sapiens) (UniProt Q9HCT0)
Assay: FGF22 melting temperature shift by ligands – biophysical, thermal shift, cherry-pick retest, FGF22 synaptogenesis inhibitor project, dose response (AID 720646)
Conditions: recombinant FGF22 thermal shift, SYPRO orange fluorescence

Sequence of Fibroblast growth factor 22 (Homo sapiens) (Q9HCT0 whole entry, looked up): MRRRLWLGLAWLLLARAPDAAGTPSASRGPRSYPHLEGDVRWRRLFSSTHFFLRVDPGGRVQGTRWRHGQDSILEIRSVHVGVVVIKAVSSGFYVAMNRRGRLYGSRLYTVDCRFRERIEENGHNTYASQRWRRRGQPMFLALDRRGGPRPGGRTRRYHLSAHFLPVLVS

Structure (SMILES)	AC
COc1ccc(NC(=O)CCCN2C(=O)CN(C)C2=O)c(OC)c1	> 38 µM (inactive)
O=C(N/N=C/c1c[nH]c2ccccc12)c1cccs1	23.4 µM
C[C@@H]1CN([C@@H](C)CO)S(=O)(=O)c2ccc(-c3cccc(C#N)c3)cc2O[C@@H]1CN(C)C(=O)Nc1cc(F)ccc1F	> 38 µM (inactive)
O=C(N[C@H]1C=C[C@H](CC(=O)N2CCCCC2)O[C@H]1CO)c1cccc(F)c1	35.5 µM
O=C(Nc1ccc(S(=O)(=O)N2CCOCC2)cc1)c1ccc(F)cc1	> 38 µM (inactive)
Cc1onc(-c2ccccc2)c1C(=O)Nc1ncc([N+](=O)[O-])s1	34 µM
CC1([N+](=O)[O-])COP(=O)(NC2CC2)OC1 (centres undefined)	21.5 µM
CC1C=NC(S(=O)(=O)N2CC[C@@H]3[C@@H](CO)N(C)c4ccc(-c5ccc(F)cc5)cc4[C@@H]32)=N1 (some centres undefined)	> 38 µM (inactive)
CC1(C(=O)NS(=O)(=O)Cc2cccc(Cl)c2)CCN1C(=O)C1(c2ccc(Cl)cc2)CCC1 (centres undefined)	24.4 µM
O=C(N/N=C\c1c[nH]c2ccccc12)c1ccc(O)cc1	16.8 µM
Cc1cc(C(=O)N/N=C/c2c[nH]c3ccccc23)cs1	30.3 µM
COC(=O)C(C)Oc1cc(OC(C)C(=O)OC)c2c(C)c(Cl)c(=O)oc2c1 (centres undefined)	> 38 µM (inactive)
Cc1[nH]c2ccc(C(=O)OCC(=O)Nc3cccc(S(N)(=O)=O)c3)cc2c1C	10.1 µM
O=C(Cc1n[nH]c(=O)[nH]c1=O)N/N=C/c1c(O)ccc2ccccc12	> 38 µM (inactive)
COc1ccc(N2CCN(CCOc3ccc4c(C)cc(=O)oc4c3)CC2)cc1	> 38 µM (inactive)
O=S(=O)(Nc1nnc(C(F)(F)F)s1)c1ccc(Cl)cc1	37.5 µM
CCC(=O)Nc1nc(C)c(-c2csc(Nc3ccccn3)n2)s1	21.6 µM

Structure (SMILES)	AC
CC(C)c1c(C(=O)N/N=C/c2c[nH]c3ccccc23)nnn1-c1nonc1N	27.4 µM
Cn1c(=O)c2c(-c3ccccc3)n(-c3cc(Cl)c([N+](=O)[O-])cc3O)cc2n(C)c1=O	28.3 µM
Nc1nnc(CC(=O)N/N=C/c2cc([N+](=O)[O-])cc(Br)c2O)s1	24.7 µM
CC(=O)Nc1cccc(C(=O)N/N=C/c2c[nH]c3ccccc23)c1	13.7 µM
O=C(O)c1[nH]c2ccc(Br)cc2c1CCN1C(=O)c2cccc([N+](=O)[O-])c2C1=O	> 38 µM (inactive)
O=C(CC1SC(=O)NC1=O)Nc1ccc(Cl)cc1 (centres undefined)	33.2 µM
CSc1ccc(/C=N/NC(=O)c2ccc3nc[nH]c3c2)cc1	37.7 µM
NC(=O)c1ccsc1NC(=O)COC(=O)Cc1c[nH]c2ccccc12	27.6 µM
N#Cc1ccc(NC(=O)Nc2cccc(C#N)c2)cc1	30.1 µM
CNC[C@H]1Oc2ccc(NC(=O)Cc3cn(C)c4ccccc34)cc2C(=O)N([C@H](C)CO)C[C@H]1C	> 42 µM (inactive)
COc1ccc(/C=N/Nc2ccc([N+](=O)[O-])cc2)cc1O	36.6 µM
Cc1ccc(NC(=O)c2ccc(OCc3c(C)noc3C)cc2)c(C)c1	34.2 µM
C[C@@H]1CN([C@H](C)CO)C(=O)Cc2cc(N(C)C)ccc2O[C@@H]1CN(C)Cc1ccc(Cl)c(Cl)c1	37.3 µM
O=C(N/N=C/c1c[nH]c2ccccc12)c1cccc(Cl)c1	27.9 µM
O=S1(=O)N=C(N(Cc2cccs2)c2ccc(O)cc2)c2ccccc21	20.4 µM
Cc1cc(C)cc(NC(=O)CN2C(=O)NC(Cc3c[nH]c4ccccc34)C2=O)c1 (centres undefined)	> 38 µM (inactive)
CCC(CC)CN1CCC(CN2C(=O)C(=O)NC[C@@H]2CC(C)C)CC1	> 38 µM (inactive)
